Laboratory results published in patent publication US20250213512A1, “TRANSDERMAL ANALGESIC FORMULATION” (MEAT & LIVESTOCK AUSTRALIA LTD, priority 2017, published 2025).
“And” between values parts separate entries of the source, which are not always exact repeats. Identical values can stand only once.

Legend:
[1] = Screening of NSAID and vehicle combinations: penetration through cattle skin in vitro (Table 13)
Protocol: Hair was removed using an electric clipper and the subcutaneous fat and musculature carefully trimmed away before the skin was cut into circular sections (approximately 2 cm diameter) using a metal wad punch, and placed in airtight ziplock bags, stored at −20° C. within 5 hr of slaughter.
The skin samples were defrosted immediately prior to use and mounted on Franz diffusion cells. […] A glass cover slip was applied to each donor chamber to prevent evaporation of the donor solution. Samples (200 μL) were collected at regular intervals from the receptor chambers via the sampling port and immediately replenished with equal volumes of fresh receptor solution. At the completion of each study, the diffusions cells were dismantled and the skin discs were rinsed and stored.

[2] = Solubility / precipitation of NSAIDs in the vehicles tested; details: vehicles screened
[3] = 10% Flunixin, vehicle KET65 (Cromollient-SCE-LQ-(MH), 100% Di-PPG2-Myreth-10-Adipate), sample time 6 hrs
[4] = 10% Flunixin, vehicle KET93: Isopronanol 50% IPN, 1-Ethyl-2-Pryrrolidone 45% EP, Menthol 50 ng/mL, Buffer/EVAP None, sample time 0.5 hrs
[5] = 10% Flunixin, vehicle KET93: Isopronanol 50% IPN, 1-Ethyl-2-Pryrrolidone 45% EP, Menthol 50 ng/mL, Buffer/EVAP None, sample time 2 hrs
[6] = 10% Flunixin, vehicle KET93: Isopronanol 50% IPN, 1-Ethyl-2-Pryrrolidone 45% EP, Menthol 50 ng/mL, Buffer/EVAP None, sample time 4 hrs
[7] = 10% Flunixin, vehicle KET93: Isopronanol 50% IPN, 1-Ethyl-2-Pryrrolidone 45% EP, Menthol 50 ng/mL, Buffer/EVAP None, sample time 6 hrs
[8] = 10% Flunixin, vehicle KET95: Isopronanol 50% IPN, 1-Ethyl-2-Pryrrolidone 45% EP, Menthol 50 ng/mL, Buffer/EVAP None, sample time 0.2 hrs
[9] = 10% Flunixin, vehicle KET95: Isopronanol 50% IPN, 1-Ethyl-2-Pryrrolidone 45% EP, Menthol 50 ng/mL, Buffer/EVAP None, sample time 0.5 hrs
[10] = 10% Flunixin, vehicle KET95: Isopronanol 50% IPN, 1-Ethyl-2-Pryrrolidone 45% EP, Menthol 50 ng/mL, Buffer/EVAP None, sample time 2 hrs
[11] = 10% Flunixin, vehicle KET95: Isopronanol 50% IPN, 1-Ethyl-2-Pryrrolidone 45% EP, Menthol 50 ng/mL, Buffer/EVAP None, sample time 4 hrs
[12] = 10% Flunixin, vehicle KET96: Isopronanol 50% IPN, Propylene glycol 45% PPG, Eucalyptus oil […] 1,8-cineole, Buffer/EVAP None, sample time not printed (sample KET1430, replicate 1)
[13] = Flunixin 10% in vehicle KET46: Ethanol 70% EthOH, Propylene glycol 30% PPG, terpene None, 0.1M citrate, sample time 6 hrs
[14] = Flunixin 10% in vehicle KET46: Ethanol 70% EthOH, Propylene glycol 30% PPG, terpene None, 0.1M citrate, sample time 8 hrs

With Cc1c(Nc2ncccc2C(=O)O)cccc1C(F)(F)F [flunixin, flunixin meglumine] the Concentration ([1]; 10% Flunixin, vehicle KET65 (Cromollient-SCE-LQ-(MH), 100% Di-PPG2-Myreth-10-Adipate), sample time 0.5 hrs) was 0 ng/mL, the Concentration ([1]; 10% Flunixin, vehicle KET65 (Cromollient-SCE-LQ-(MH), 100% Di-PPG2-Myreth-10-Adipate), sample time 2 hrs) was 0 ng/mL and the analysis conc ([1]; 10% Flunixin, vehicle KET65 (Cromollient-SCE-LQ-(MH), 100% Di-PPG2-Myreth-10-Adipate), sample time 4 hrs) was 0.006 and 0.005. For the same compound, the Concentration [1, 3] was 18 ng/mL and 21 ng/mL and 15 ng/mL, the analysis conc [1, 3] was 0.006 and 0.007 and 0.005 and the Concentration [1, 4] was 96 ng/mL. For the same compound, the analysis conc [1, 4] was 0.032, the Concentration [1, 5] was 102 ng/mL and the analysis conc [1, 5] was 0.034. The Concentration [1, 6] was 543 ng/mL, the analysis conc [1, 6] was 0.181 and the Concentration [1, 7] was 579 ng/mL. It also gave an analysis conc [1, 7] of 0.193, a Concentration ([1]; 10% Flunixin, vehicle KET94: Isopronanol 50% IPN, Propylene glycol 45% PPG, Eucalyptus oil […] 1,8-cineole, Buffer/EVAP None, sample time 2 hrs) of 135 ng/mL and a Concentration ([1]; 10% Flunixin, vehicle KET94: Isopronanol 50% IPN, Propylene glycol 45% PPG, Eucalyptus oil […] 1,8-cineole, Buffer/EVAP None, sample time 2 hrs, listed as Flunixin) of 123 ng/mL. The Concentration [1, 8] was 114 ng/mL, the analysis conc [1, 8] was 0.038 and the Concentration [1, 9] was 159 ng/mL and 237 ng/mL. For the same compound, the analysis conc [1, 9] was 0.053 and 0.079, the Concentration [1, 10] was 165 ng/mL and 246 ng/mL and 132 ng/mL and the analysis conc [1, 10] was 0.055 and 0.082 and 0.044. For the same compound, the Concentration [1, 11] was 186 ng/mL and 285 ng/mL and 147 ng/mL, the analysis conc [1, 11] was 0.062 and 0.095 and 0.049 and the Concentration [1, 12] was 60 ng/mL. For the same compound, the analysis conc [1, 12] was 0.02, the “Concentration” value ([1]; Flunixin 10% in vehicle KET46: Ethanol 70% EthOH, Propylene glycol 30% PPG, terpene None, 0.1M citrate, sample time 2 hrs) was 0 ng/mL and the “Concentration” value ([1]; Flunixin 10% in vehicle KET46: Ethanol 70% EthOH, Propylene glycol 30% PPG, terpene None, 0.1M citrate, sample time 4 hrs) was 0 ng/mL. The “Concentration” value [1, 13] was 36 ng/mL, the analysis conc [1, 13] was 0.012 and the “Concentration” value [1, 14] was 36 ng/mL. It also gave an analysis conc [1, 14] of 0.012, an analysis conc ([1]; Flunixin 10% in vehicle KET47: Ethanol 70% EthOH, Propylene glycol 30% PPG, Menthol 50 mg/mL, 0.1M citrate, sample time 0.5 hrs) of 0.009 and a Concentration ([1]; Flunixin 50%, vehicle KET38: Ethanol 50% EthOH, no co-solvent, Menthol 50 mg/mL, sample time 0.5 hrs, replicates 1-3) of 0 ng/mL. The Concentration ([1]; Flunixin 50%, vehicle KET38: Ethanol 50% EthOH, no co-solvent, Menthol 50 mg/mL, sample time 2 hrs, replicates 1-3) was 0 ng/mL, the Concentration ([1]; Flunixin 50%, vehicle KET38: Ethanol 50% EthOH, no co-solvent, Menthol 50 mg/mL, sample time 4 hrs, replicates 1-3) was 0 ng/mL and the Concentration ([1]; Flunixin 50%, vehicle KET38: Ethanol 50% EthOH, no co-solvent, Menthol 50 mg/mL, sample time 6 hrs, replicates 1-3) was 0 ng/mL. The Concentration ([1]; Flunixin 50%, vehicle KET38: Ethanol 50% EthOH, no co-solvent, Menthol 50 mg/mL, sample time 8 hrs, replicates 1-3) was 0 ng/mL and the solubility in vehicles [2] was “most soluble in the majority of vehicles examined”.
